Source: patent US20260265305A1, “POLYPEPTIDE DERIVATIVE FOR ORAL DELIVERY” (Hangzhou Sciwind Biosciences Co., Ltd., priority 2023, published 2026)
Like-named read-outs stand apart in the source and are kept apart here. Square brackets hold non-standard residues; d marks the D form. Peptide text beside a SMILES is read from it. * marks the point of attachment. C20 diacid = O=C(O)CCCCCCCCCCCCCCCCCCC(=O)*; C18 diacid = O=C(O)CCCCCCCCCCCCCCCCC(=O)*; Trx = NC[C@H]1CC[C@H](C(=O)O)CC1; AEEA = NCCOCCOCC(=O)O; Inp = O=C(O)C1CCNCC1

Tests used:
[1] = Heat accelerated stability assay of polypeptide solutions (40° C., pH about 7.4), reversed phase chromatography; type: physicochemical; conditions: 40° C.; for Concentration change on 7 d / Concentration change on 26 d: pH about 7.4, 1 mg/mL; for Concentration change on 7 d / Purity change on 7 d: Day 7; for Concentration change on 26 d / Purity change on 26 d: Day 26; for Purity change on 7 d / Purity change on 26 d: reversed phase chromatography 214 nm; for Purity change on 7 d: purity on 7 d − purity on 0 d; for Purity change on 26 d: purity on 26 d − purity on 0 d
Description: A stability test chamber (BINDER GmbH), a 0.01 mg-readability balance (METTLER TOLEDO), a pH meter (METTLER TOLEDO), a biosafety cabinet (ESCO), T2G-II small-sized motor-driven capping machine (Changsha zhongya pharmaceutical equipment co. LTD), a high-speed refrigerated centrifuge (Eppendorf), a sterilizer cabinet (Shinva Medical), Agilent 1260 high-performance liquid chromatographer, and Sepax Bio-C18 4.6*250 mm 3 μm 200 Å reversed phase column were used.
Reagents and consumables included: ultrapure water (18.2 MΩ, self-made), acetonitrile (HPLC grade), trifluoroacetic acid (HPLC grade), sodium dihydrogen phosphate (pharmaceutical grade, Hunan Jiudian Hongyang Pharmaceutical Co., Ltd), hydrochloric acid (pharmaceutical grade, Hunan Er-Kang Pharmaceutical Co., Ltd), sodium hydroxide (Analytical Reagent grade, Hushi®, Sinopharm Chemical Reagent Co., Ltd), vials, rubber stoppers, disposable syringes, and sterile filters.
The lyophilized powder (1 mg/mL) of the polypeptide derivative prepared in accordance with the method of Example 1 was mixed with sodium dihydrogen phosphate (1.42 mg/mL) and dissolved in ultrapure water in the indicated mass-volume ratios. After adjusting pH to about 7.4 with hydrochloric acid/sodium hydroxide, the solution was filtered into a sterilized vial in a clean bench using a 0.22 μm sterile filter. The vial was then capped and placed into the stability test chamber at 40° C. Detections were made on Days 7 (7d) and 26 (26d), and during the assay, changes in the characteristics and properties of the polypeptide were observed and recorded. The sample was then centrifuged for 3 min at 10,000 rpm at 4° C., and the supernatant was transferred to a liquid phase sample vial for detecting the concentration and purity of the polypeptides using liquid phase chromatography described as below, wherein the concentration of the polypeptide=peak area/injection volume/extinction coefficient/60×flow rate, and the purity of the polypeptide=target peak area/total peak area×100%.
Conditions of the reversed phase chromatography Flow rate: 1.0 ml/min; Autosampler temperature: 15° C.; Column temperature: 25° C.; Detection wavelengths: 280 nm and 214 nm; Mobile phase A: 100% H2O+0.05% TFA; Mobile phase B: 100% ACN; and Gradient of elution listed in Table 6: […]

amylin receptor (hAMY3R) = molecular target: T1, amylin receptor (hAMY3R) (Homo sapiens, UniProt O60896+P30988); experiment: Amylin receptor agonism testing, CRE-luciferase assay in stably transfected CHO-K1/Ga15/AMY3 cells; type: cell-based; conditions: for Fold change in activity against hAMY3R: relative to D1 as benchmark; for EC50: incubation of 24 hours, Table 3, read-out: EC50, activity against the amylin receptor in cells; for increase in the ratio of activity against the amylin receptor to agonistic activity against the calcitonin receptor: relative to the benchmark D1
T1 construct: host or cells: CHO-K1/Ga15/AMY3 cells, further stably transfected with a CRE-luciferase plasmid
T1 sequence (P30988 25-474): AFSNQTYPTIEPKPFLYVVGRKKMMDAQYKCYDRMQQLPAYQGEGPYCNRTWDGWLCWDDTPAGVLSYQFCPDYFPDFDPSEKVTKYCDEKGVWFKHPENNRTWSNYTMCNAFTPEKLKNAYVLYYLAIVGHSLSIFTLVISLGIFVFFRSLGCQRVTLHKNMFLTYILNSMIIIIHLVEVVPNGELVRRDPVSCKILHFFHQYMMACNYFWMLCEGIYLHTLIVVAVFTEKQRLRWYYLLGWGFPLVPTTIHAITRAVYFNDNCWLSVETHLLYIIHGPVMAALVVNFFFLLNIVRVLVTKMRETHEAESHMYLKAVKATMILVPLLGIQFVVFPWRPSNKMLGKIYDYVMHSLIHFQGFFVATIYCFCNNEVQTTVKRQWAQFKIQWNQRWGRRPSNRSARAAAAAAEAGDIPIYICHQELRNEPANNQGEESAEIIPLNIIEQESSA
T1 sequence (O60896 24-148): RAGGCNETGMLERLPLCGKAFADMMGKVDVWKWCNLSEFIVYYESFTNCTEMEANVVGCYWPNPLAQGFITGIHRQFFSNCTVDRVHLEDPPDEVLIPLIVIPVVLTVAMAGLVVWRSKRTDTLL
Description: The objective of this assay is to test the potency of the polypeptide derivatives in the present application on amylin and calcitonin receptors in vitro using a luciferase assay.
Using the standard protocol for construction of an amylin receptor/CRE-luc cell line, CHO-K1/Ga15/AMY3 cells (purchased from GenScript, with the calcitonin receptor and the receptor activity modifying peptide (RAMP) constructed already) were transfected with a plasmid containing a luciferase expression cassette driven by multiple copies of cAMP response elements (CREs). The cells were cultured in an F12 medium containing 200 ug/mL Zeocin, 2 ug/mL puromycin, 100 ug/mL hygromycin, and 400 ug/mL G418 to afford a stably transfected amylin receptor/CRE-luc cell line.
(§1) To each well of a white 96-well plate was added 50 μL of the tested sample solution at a respective concentration.
The stably transfected amylin receptor/CRE-luc CHO cells were resuspended in the growth medium at a certain density, and 50 μL of the cell suspension was added at a density of about 20,000 cells per well to the white 96-well plate containing the tested sample solution. After incubation of 24 hours at 37° C. and 5% CO2, 100 μL of a Luciferase substrate was added to each well, incubated for 3 minutes, and finally was tested for luminescence on SpectraMax L (Molecular Devices) with the software SoftMax Pro 7.0.3 GxP. A standard curve was plotted using the fluorescent intensities for calculation of EC50.

[2] = molecular target: T2, calcitonin receptor (hCTR) (Homo sapiens, UniProt P30988); experiment: Calcitonin receptor agonism, CRE-luciferase assay in stably transfected CHO-K1/CALCR/Ga15 cells; type: cell-based; conditions: for Fold change in activity against hCTR: relative to D1 as benchmark
T2 construct: host or cells: CHO-K1/CALCR/Ga15 cells, further stably transfected with a CRE-luciferase plasmid
T2 sequence (P30988 25-474): T1 sequence (P30988 25-474)
Description: Using the standard protocol, CHO-K1/CALCR/Ga15 cells (purchased from GenScript, with the calcitonin receptor constructed already) were transfected with a plasmid containing a luciferase expression cassette driven by multiple copies of cAMP response elements (CREs). The cells were cultured in an F12 medium containing 200 ug/mL Zeocin, 2 ug/mL puromycin, and 100 ug/mL hygromycin to afford a stably transfected calcitonin receptor/CRE-luc cell line.
as §1
The stably transfected calcitonin receptor/CRE-luc CHO cells were resuspended in the growth medium at a certain density, and 50 μL of the cell suspension was added at a density of about 20,000 cells per well to the white 96-well plate containing the tested sample solution. After incubation of 24 hours at 37° C. and 5% CO2, 100 μL of a Luciferase substrate was added to each well, incubated for 3 minutes, and finally was tested for luminescence on SpectraMax L (Molecular Devices) with the software SoftMax Pro 7.0.3 GxP. A standard curve was plotted using the fluorescent intensities for calculation of EC50.

[3] = incubation of 24 hours, Table 4, read-out: EC50, activity against the calcitonin receptor in cells

Row | SMILES | Concentration change on 7 d [1] [%] | Concentration change on 26 d [1] [%] | Purity change on 7 d [1] | Purity change on 26 d [1] [%] | Fold change in activity against hAMY3R (amylin receptor (hAMY3R)) | Fold change in activity against hCTR [2] | increase in agonistic activity against the amylin receptor (amylin receptor (hAMY3R); compared with M17) [folds] | EC50 (amylin receptor (hAMY3R)) [nM] | increase in the ratio of activity against the amylin receptor to agonistic activity against the calcitonin receptor (amylin receptor (hAMY3R)) | EC50 ([2]; Table 5 integrated analysis, read-out: hCTR EC50) [nM] | EC50 [2, 3] [nM]
1 | CC(C)C[C@H](NC(=O)[C@H](CCCNC(=N)N)NC(=O)CNC(=O)[C@H](CC(C)C)NC(=O)[C@@H](NC(=O)[C@H](C)NC(=O)[C@@H](NC(=O)[C@H](CO)NC(=O)[C@H](CC(C)C)NC(=O)[C@H](CCC(N)=O)NC(=O)[C@H](CO)NC(=O)[C@H](C)NC(=O)[C@H]1CC[C@H](CNC(=O)CCCCCCCCCCCCCCCCCCC(=O)O)CC1)[C@@H](C)O)C(C)C)C(=O)N[C@@H](CO)C(=O)N[C@@H](CC(=O)O)C(=O)N[C@@H](CCC(=O)O)C(=O)N[C@@H](CC(C)C)C(=O)N[C@@H](Cc1c[nH]cn1)C(=O)N[C@@H](CCCNC(=N)N)C(=O)N[C@@H](CC(C)C)C(=O)N[C@@H](CCC(N)=O)C(=O)N[C@@H](CC(=O)O)C(=O)N[C@@H](Cc1ccc(O)cc1)C(=O)N1CCC[C@H]1C(=O)N[C@@H](CCCNC(=N)N)C(=O)N[C@H](C(=O)N[C@@H](CC(=O)O)C(=O)N[C@H](C(=O)NCC(=O)N[C@@H](CO)C(=O)NCC(=O)N[C@@H](CO)C(=O)N1CCC[C@H]1C(N)=O)C(C)C)[C@@H](C)O [M14] ({C20 diacid-Trx}-ASQLSTAVLGRLSDELHRLQDYPRTDVGSGSP-NH2) | −3.464 | −8.377 | No change | −1.77 | 0.079 | 0.147 |  |  |  |  | 
2 | CC(C)C[C@H](NC(=O)[C@H](CCCNC(=N)N)NC(=O)CNC(=O)[C@H](CC(C)C)NC(=O)[C@@H](NC(=O)[C@H](C)NC(=O)[C@@H](NC(=O)[C@H](CO)NC(=O)[C@H](CC(C)C)NC(=O)[C@H](CCC(N)=O)NC(=O)[C@H](CO)NC(=O)[C@H](C)NC(=O)C1CCN(C(=O)CCCCCCCCCCCCCCCCC(=O)O)CC1)[C@@H](C)O)C(C)C)C(=O)N[C@@H](CO)C(=O)N[C@@H](CC(=O)O)C(=O)N[C@@H](CCC(=O)O)C(=O)N[C@@H](CC(C)C)C(=O)N[C@@H](Cc1c[nH]cn1)C(=O)N[C@@H](CCCNC(=N)N)C(=O)N[C@@H](CC(C)C)C(=O)N[C@@H](CCC(N)=O)C(=O)N[C@@H](CC(=O)O)C(=O)N[C@@H](Cc1ccc(O)cc1)C(=O)N1CCC[C@H]1C(=O)N[C@@H](CCCNC(=N)N)C(=O)N[C@H](C(=O)N[C@@H](CC(=O)O)C(=O)N[C@H](C(=O)NCC(=O)N[C@@H](CO)C(=O)NCC(=O)N[C@@H](CO)C(=O)N1CCC[C@H]1C(N)=O)C(C)C)[C@@H](C)O [M17] ({C18 diacid-Inp}-ASQLSTAVLGRLSDELHRLQDYPRTDVGSGSP-NH2) | −1.927 | −5.985 | −1% | −3.9 | 0.571 | 0.332 |  |  | 1.7 fold |  | 0.259

Other lines, results leading:

Row | Concentration change on 7 d [1] [%] | Concentration change on 26 d [1] [%] | Purity change on 7 d [1] | Purity change on 26 d [1] [%] | Fold change in activity against hAMY3R (amylin receptor (hAMY3R)) | Fold change in activity against hCTR [2] | increase in agonistic activity against the amylin receptor (amylin receptor (hAMY3R); compared with M17) [folds] | EC50 (amylin receptor (hAMY3R)) [nM] | increase in the ratio of activity against the amylin receptor to agonistic activity against the calcitonin receptor (amylin receptor (hAMY3R)) | EC50 ([2]; Table 5 integrated analysis, read-out: hCTR EC50) [nM] | EC50 [2, 3] [nM] | SMILES
3 |  | −5.268 | No change | −4.34 | 36.000 | 0.848 | ~70 | 0.001 | about 42.5 fold | 0.101 |  | CC(C)C[C@H](NC(=O)[C@H](CCCNC(=N)N)NC(=O)CNC(=O)[C@H](CC(C)C)NC(=O)[C@@H](NC(=O)[C@H](C)NC(=O)[C@@H](NC(=O)[C@H](CO)NC(=O)[C@H](CC(C)C)NC(=O)[C@H](CCC(N)=O)NC(=O)[C@H](CO)NC(=O)[C@H](C)NC(=O)COCCOCCNC(=O)COCCOCCNC(=O)C1CCN(C(=O)CCCCCCCCCCCCCCCCC(=O)O)CC1)[C@@H](C)O)C(C)C)C(=O)N[C@@H](CO)C(=O)N[C@@H](CC(=O)O)C(=O)N[C@@H](CCC(=O)O)C(=O)N[C@@H](CC(C)C)C(=O)N[C@@H](Cc1c[nH]cn1)C(=O)N[C@@H](CCCNC(=N)N)C(=O)N[C@@H](CC(C)C)C(=O)N[C@@H](CCC(N)=O)C(=O)N[C@@H](CC(=O)O)C(=O)N[C@@H](Cc1ccc(O)cc1)C(=O)N1CCC[C@H]1C(=O)N[C@@H](CCCNC(=N)N)C(=O)N[C@H](C(=O)N[C@@H](CC(=O)O)C(=O)N[C@H](C(=O)NCC(=O)N[C@@H](CO)C(=O)NCC(=O)N[C@@H](CO)C(=O)N1CCC[C@H]1C(N)=O)C(C)C)[C@@H](C)O [M30] ({C18 diacid-Inp-AEEA-AEEA}-ASQLSTAVLGRLSDELHRLQDYPRTDVGSGSP-NH2)
4 | −2.402 | −2.235 | −2.39% | −2.68 |  |  |  | 0.008 |  |  | 0.024 | CC(C)C[C@H](NC(=O)[C@H](CCCNC(=N)N)NC(=O)CNC(=O)[C@H](CC(C)C)NC(=O)[C@@H](NC(=O)[C@H](C)NC(=O)[C@@H](NC(=O)[C@H](CO)NC(=O)[C@H](CC(C)C)NC(=O)[C@H](CCC(N)=O)NC(=O)[C@H](CO)NC(=O)[C@H](C)NC(=O)COCCOCCNC(=O)COCCOCCNC(=O)[C@H](CC(=O)O)NC(=O)CCCCCCCCCCCCCCCCC(=O)O)[C@@H](C)O)C(C)C)C(=O)N[C@@H](CO)C(=O)N[C@@H](CC(=O)O)C(=O)N[C@@H](CCC(=O)O)C(=O)N[C@@H](CC(C)C)C(=O)N[C@@H](Cc1c[nH]cn1)C(=O)N[C@@H](CCCNC(=N)N)C(=O)N[C@@H](CC(C)C)C(=O)N[C@@H](CCC(N)=O)C(=O)N[C@@H](CC(=O)O)C(=O)N[C@@H](Cc1ccc(O)cc1)C(=O)N1CCC[C@H]1C(=O)N[C@@H](CCCNC(=N)N)C(=O)N[C@H](C(=O)N[C@@H](CC(=O)O)C(=O)N[C@H](C(=O)NCC(=O)N[C@@H](CO)C(=O)NCC(=O)N[C@@H](CO)C(=O)N1CCC[C@H]1C(N)=O)C(C)C)[C@@H](C)O [M26] ({C18 diacid}-D[AEEA][AEEA]ASQLSTAVLGRLSDELHRLQDYPRTDVGSGSP-NH2)
5 |  |  |  |  | 18.000 | 0.966 |  |  |  |  |  | CC(C)C[C@H](NC(=O)[C@H](CCCNC(=N)N)NC(=O)CNC(=O)[C@H](CC(C)C)NC(=O)[C@@H](NC(=O)[C@H](C)NC(=O)[C@@H](NC(=O)[C@H](CO)NC(=O)[C@H](CC(C)C)NC(=O)[C@H](CCC(N)=O)NC(=O)[C@H](CO)NC(=O)[C@H](C)NC(=O)COCCOCCNC(=O)COCCOCCNC(=O)[C@H]1CC[C@H](CNC(=O)CCCCCCCCCCCCCCCCC(=O)O)CC1)[C@@H](C)O)C(C)C)C(=O)N[C@@H](CO)C(=O)N[C@@H](CC(=O)O)C(=O)N[C@@H](CCC(=O)O)C(=O)N[C@@H](CC(C)C)C(=O)N[C@@H](Cc1c[nH]cn1)C(=O)N[C@@H](CCCNC(=N)N)C(=O)N[C@@H](CC(C)C)C(=O)N[C@@H](CCC(N)=O)C(=O)N[C@@H](CC(=O)O)C(=O)N[C@@H](Cc1ccc(O)cc1)C(=O)N1CCC[C@H]1C(=O)N[C@@H](CCCNC(=N)N)C(=O)N[C@H](C(=O)N[C@@H](CC(=O)O)C(=O)N[C@H](C(=O)NCC(=O)N[C@@H](CO)C(=O)NCC(=O)N[C@@H](CO)C(=O)N1CCC[C@H]1C(N)=O)C(C)C)[C@@H](C)O [M28] ({C18 diacid-Trx-AEEA-AEEA}-ASQLSTAVLGRLSDELHRLQDYPRTDVGSGSP-NH2)
